# Data: ChEMBL document CHEMBL1145609, “Design and synthesis of tacrine-ferulic acid hybrids as multi-potent anti-Alzheimer drug candidates” (Bioorg Med Chem Lett, 2008)
# Key:
# [1] = target: Acetylcholinesterase (Electrophorus electricus, UniProt O42275)
# Description: Inhibition of electric eel AchE by Ellman's assay
# [2] = target: Butyrylcholinesterase (Equus caballus, UniProt Q9N1N9)
# Sequence of Butyrylcholinesterase (Q9N1N9 whole entry): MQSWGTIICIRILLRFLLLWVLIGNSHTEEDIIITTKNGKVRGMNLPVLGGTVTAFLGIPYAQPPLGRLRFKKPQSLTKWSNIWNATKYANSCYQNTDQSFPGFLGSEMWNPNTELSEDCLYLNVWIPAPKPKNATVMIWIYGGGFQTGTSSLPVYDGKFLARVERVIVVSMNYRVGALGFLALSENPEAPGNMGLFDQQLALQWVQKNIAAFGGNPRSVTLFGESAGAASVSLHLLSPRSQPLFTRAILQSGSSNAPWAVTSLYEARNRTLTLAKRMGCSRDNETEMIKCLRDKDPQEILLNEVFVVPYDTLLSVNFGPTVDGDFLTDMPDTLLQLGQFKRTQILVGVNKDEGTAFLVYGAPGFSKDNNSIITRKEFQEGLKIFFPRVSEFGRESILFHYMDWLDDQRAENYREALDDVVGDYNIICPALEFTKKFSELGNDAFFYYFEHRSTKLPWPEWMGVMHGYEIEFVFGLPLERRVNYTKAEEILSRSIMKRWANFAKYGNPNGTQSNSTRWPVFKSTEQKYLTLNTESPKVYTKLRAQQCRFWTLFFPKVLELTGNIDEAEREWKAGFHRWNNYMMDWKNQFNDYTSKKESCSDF
# Description: Inhibition of equine BChE by Ellman's assay
# Sequence of Acetylcholinesterase (O42275 whole entry): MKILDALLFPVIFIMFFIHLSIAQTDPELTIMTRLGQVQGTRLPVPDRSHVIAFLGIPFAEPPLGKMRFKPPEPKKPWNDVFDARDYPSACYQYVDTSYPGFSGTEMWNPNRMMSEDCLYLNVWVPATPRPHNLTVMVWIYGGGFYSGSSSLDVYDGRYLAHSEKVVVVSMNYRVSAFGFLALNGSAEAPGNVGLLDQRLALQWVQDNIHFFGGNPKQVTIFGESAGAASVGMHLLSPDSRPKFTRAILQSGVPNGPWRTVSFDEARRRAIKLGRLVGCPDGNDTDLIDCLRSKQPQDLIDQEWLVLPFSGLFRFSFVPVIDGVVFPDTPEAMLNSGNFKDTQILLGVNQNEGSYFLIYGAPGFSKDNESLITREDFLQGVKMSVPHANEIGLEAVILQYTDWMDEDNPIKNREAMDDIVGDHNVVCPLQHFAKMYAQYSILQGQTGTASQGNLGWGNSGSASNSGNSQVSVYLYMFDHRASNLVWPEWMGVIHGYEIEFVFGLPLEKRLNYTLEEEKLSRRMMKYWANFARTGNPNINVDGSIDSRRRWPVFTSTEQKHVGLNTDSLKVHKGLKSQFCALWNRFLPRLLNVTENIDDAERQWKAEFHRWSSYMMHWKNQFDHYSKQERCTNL
SMILES,IC50 [1] [nM],IC50 [2] [nM]
COc1cc(/C=C/C(=O)NCCNc2c3c(nc4ccccc24)CCCC3)ccc1O,38.6,34.1
COc1cc(/C=C/C(=O)NCCCCCCCCNc2c3c(nc4ccccc24)CCCC3)ccc1O,9.6,12.7
NCCNc1c2c(nc3ccccc13)CCCC2,54.8,12.3
NCCCCCNc1c2c(nc3ccccc13)CCCC2,3.2,5
NCCCCNc1c2c(nc3ccccc13)CCCC2,23.6,7.1
COc1cc(/C=C/C(=O)NCCCCCNc2c3c(nc4ccccc24)CCCC3)ccc1O,4.4,6.7
NCCCCCCCCNc1c2c(nc3ccccc13)CCCC2,3.5,1.4
NCCCNc1c2c(nc3ccccc13)CCCC2,69.5,5.5
COc1cc(/C=C/C(=O)NCCCCNc2c3c(nc4ccccc24)CCCC3)ccc1O,7.6,5.9
COc1cc(/C=C/C(=O)NCCCNc2c3c(nc4ccccc24)CCCC3)ccc1O,33,27
